Results reported in ChEMBL document CHEMBL5120927, “LEGO-Lipophosphonoxins: A Novel Approach in Designing Membrane Targeting Antimicrobials” (J Med Chem, 2022).
Calls of active or inactive are those of the source. No cut-off for these calls is given here.

Key:
Staphylococcus aureus [1] = assay: microbe, parasite or virus in culture; conditions: 4862/C, 24 h
Description: Antibacterial activity against wild type Staphylococcus aureus 4862/C assessed as reduction in microbial growth incubated for 24 hrs by microdilution assay

Staphylococcus aureus [2] = assay: Antibacterial activity against […] Staphylococcus aureus 4463/A assessed as reduction in microbial growth incubated for 24 hrs by microdilution assay; assay type: functional
Staphylococcus aureus [3] = assay: Antibacterial activity against wild type Staphylococcus aureus 4788/B assessed as reduction in microbial growth incubated for 24 hrs by microdilution assay; assay type: functional
[4] = Cytotoxicity against human HepG2 cells assessed as reduction in cell viability; assay type: toxicity, cell-based
Cell membrane = assay: Induction of cell envelope damage in Staphylococcus aureus assessed as tubular structure at 8 mg/L measured after 8 hrs by scanning electron microscope analysis
Escherichia coli = assay: Antibacterial activity against Escherichia coli CCM 3954 assessed as time to reduce microbial population at 2 mg/L measured by time-kill assay; assay type: functional
Pseudomonas aeruginosa [5] = assay: Antibacterial activity against Pseudomonas aeruginosa assessed as reduction in microbial growth measured after 20 cycles by microdilution assay; assay type: functional; conditions: time 24 hrs
Staphylococcus aureus [6] = assay: Antibacterial activity against wild type Staphylococcus aureus 4883/C assessed as reduction in microbial growth incubated for 24 hrs by microdilution assay; assay type: functional
Pseudomonas aeruginosa [7] = assay: Antibacterial activity against Pseudomonas aeruginosa ATCC 27853 = CCM 3955 assessed as inhibition of bacterial growth incubated for 24 hrs by microdilution assay; assay type: functional
Staphylococcus aureus [8] = assay: Antibacterial activity against […] Staphylococcus aureus 4461/A assessed as reduction in microbial growth incubated for 24 hrs by microdilution assay; assay type: functional
Staphylococcus aureus [9] = assay: Antibacterial activity against wild type Staphylococcus aureus 4504/A assessed as reduction in microbial growth incubated for 24 hrs by microdilution assay; assay type: functional
Staphylococcus aureus [10] = assay: Antibacterial activity against Staphylococcus aureus CCM 4223 persisters assessed as reduction in bacterial cell count at 1 to 10 times MIC incubated for 3 hrs by cell counting method; assay type: functional, organism-based
Staphylococcus aureus [11] = assay: Antibacterial activity against wild type Staphylococcus aureus 4561/A assessed as reduction in microbial growth incubated for 24 hrs by microdilution assay; assay type: functional
Staphylococcus aureus [12] = assay: Antibacterial activity against wild type Staphylococcus aureus 4502/A assessed as reduction in microbial growth incubated for 24 hrs by microdilution assay; assay type: functional

Compound: CCCCCCCCOP(=O)(CCN(CCCN)CCCN)OCCCCCCOP(=O)(CCN(CCCN)CCCN)OCCCCCCCC.Cl.Cl.Cl.Cl.Cl.Cl (centres undefined)
- MIC (Staphylococcus aureus [1]): 0.5 µg/mL
- MIC (Staphylococcus aureus [2]): 1 µg/mL
- MIC (Staphylococcus aureus [3]): 0.5 µg/mL
- CC50 [4]: 33.1 µM
- Activity (Cell membrane): Active
- Time (Escherichia coli): 12 h
- fold change (FC) (Pseudomonas aeruginosa [5]): 32
- MIC (Staphylococcus aureus [6]): 1 µg/mL
- MIC (Pseudomonas aeruginosa [7]): 2 µg/mL
- MIC (Staphylococcus aureus [8]): 0.5 µg/mL
- MIC (Staphylococcus aureus [9]): 0.5 µg/mL
- Activity (Staphylococcus aureus [10]): Active
- MIC (Staphylococcus aureus [11]): 0.5 µg/mL
- MIC (Staphylococcus aureus [12]): 1 µg/mL
